How the values were obtained:
iPS cells 253G1 strain [1] = assay: Cell number during endodermal differentiation-induction in medium with β-NMN (Example 4); format: cell-based; conditions: endodermal differentiation-inducing medium containing β-NMN 0.1, 0.25 or 1 mM; 7th day after seeding; versus medium not containing β-NMN
Protocol: The effects of β-NMN on the induction of endodermal differentiation of iPS cells were examined. As the iPS cells, the 253G1 strain was used. The iPS cells were seeded in a 24-well plate coated with Matrigel (manufactured by Corning Incorporated) according to the manufacturer's protocol at 3×10^5 cells/well. The cells in the 24-well plate were cultured in a culture medium for iPS cells adjusted to have a final concentration of Rock inhibitor of 10 μM for 1 day. From the 1st day after seeding, the culture medium was replaced with a culture medium prepared by adjusting an endoderm differentiation-inducing culture medium of “STEMdiff Trilineage Differentiation kit” (manufactured by STEMCELL Technologies) to have a final concentration of β-NMN of 0, 0.1, 0.25, or 1 mM for 1 day. The culture medium was replaced with a culture medium prepared by adjusting an endodermal differentiation-inducing culture medium to have final concentrations of both β-NMN and Rock inhibitor of 10 μM only on the 1st day after seeding. Cells of the 7th day after seeding were sampled and the cell numbers were counted. As a result, the number of the cells cultured in the endodermal differentiation-inducing culture medium containing β-NMN was larger than the number of the cells cultured in the medium not containing β-NMN.

iPS cells 253G1 strain [2] = assay: Cell number in endodermal differentiation-induction after undifferentiated culture with β-NMN (Example 5); format: cell-based; conditions: β-NMN 0.25 or 1 mM in culture medium for iPS cells before endodermal differentiation-induction; 7th day after seeding; versus no β-NMN
Protocol: The effects of culturing in the presence of β-NMN before induction of differentiation on the endodermal differentiation-induction of iPS cells was examined. As the iPS cells, the 253G1 strain was used. iPS cells seeded on a culture dish coated with Matrigel (manufactured by Corning Incorporated) according to the manufacturer's protocol were cultured in a culture medium prepared by adjusting a culture medium for iPS cells to have a final concentration of β-NMN 0, 0.25 or 1 mM, and a final concentration of Rock inhibitor of 10 μM for 1 day. From the 1st day after seeding, the culture medium was replaced every day with a culture medium obtained by removing the Rock inhibitor from the culture medium at the time of seeding. When the confluent reached 70 to 80%, the iPS cells were detached from the culture dish and collected. The collected iPS cells were seeded at 3×10^5 cells/well in a 24-well plate coated with Matrigel (manufactured by Corning Incorporated) according to the manufacturer's protocol. The cells in the 24-well plate were cultured for 1 day in a culture medium prepared by removing β-NMN from the culture medium when culturing in the culture dish and adjusting to have a final concentration of Rock inhibitor of 10 μM. […] Cells on the 7th day after seeding were sampled and the numbers of cells were counted.

iPS cells 201B7 strain = assay: Cell number in ectodermal differentiation-induction after undifferentiated culture with β-NMN (Example 7); format: cell-based, human; conditions: β-NMN 0.25 or 1 mM in culture medium for iPS cells before ectodermal differentiation-induction; 7th or 9th day after seeding; versus no β-NMN
Protocol: The effects of culturing in the presence of β-NMN before induction of differentiation on the ectodermal differentiation-induction of iPS cells was examined. As the iPS cells, the 201B7 strain was used. The iPS cells were cultured in a culture dish in the same manner as in Example 5, and when the confluent reached 70 to 80%, the iPS cells were detached from the culture dish and collected. The collected iPS cells were seeded at 3×10^5 cells/well in a 24-well plate coated with Matrigel (manufactured by Corning Incorporated) according to the manufacturer's protocol. The cells in the 24-well plate were cultured for 1 day in a culture medium prepared by removing β-NMN from the culture medium when culturing in the culture dish and adjusting to have a final concentration of Rock inhibitor of 10 μM. From the 1st day after seeding, the medium was replaced every day with a culture medium for ectodermal differentiation-induction of “STEMdiff Trilineage Differentiation kit” (manufactured by STEMCELL Technologies). The cells of the 7th or 9th day after seeding were sampled and the cell numbers were counted. The time-dependent change in cell number of each sample is shown in FIG. 12(A), and the cell number of each sample on the 9th day after seeding is shown in FIG. 12(B). […]

In the case of NC(=O)c1ccc[n+]([C@@H]2O[C@H](COP(=O)([O-])O)[C@@H](O)[C@H]2O)c1 [β-NMN, β-nicotinamide mononucleotide], the “number of the cells” value (iPS cells 253G1 strain [1]) is reported as “larger”, the cell number (iPS cells 253G1 strain [2]) is reported as “no clear difference” and the “number of the cells” value (iPS cells 201B7 strain) is reported as “larger”.

— patent publication US11814652B2, “Pluripotent stem cell differentiation-promoting agent” (Oriental Yeast Co., Ltd., priority 2018, dated 2023)
